From patent US20170002055A1, “Novel peptides and combination of peptides for use in immunotherapy against ovarian cancer and other cancers” (immatics biotechnologies GmbH, priority 2015, published 2017)

Columns and labels:
HLA-A*02:01 = HLA-A*02:01 (Homo sapiens, UniProt P04439, D140Y/D185E/D98H/E176V/E277Q/G131W/G231S/I119V/I121R/I166T/I218V/L300P/L318F/N151K/N90K/P208A/P217A/Q86G/Q94H/R138H/R169H/T345S); test: MHC binding assay (UV-ligand exchange, β2m ELISA, peptide exchange yield); conditions: MHC class I binding score; binding to HLA-A*02:01 ranged by peptide exchange yield (UV-ligand exchange, β2m ELISA)
Summary of the method: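 Peptide–HLA-A*02:01 complexes were formed by UV-mediated exchange of a UV-cleavable ligand for the test peptide. Exchange yield was measured by capturing complexes on streptavidin, detecting with HRP anti-β2m antibody (1 h, 37°C) and reading TMB absorbance at 450 nm.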

CD8+ T cells = test: In vitro immunogenicity: priming of CD8+ T cells with artificial APCs loaded with peptide/MHC and anti-CD28, multimer readout; format: cell-based, human; conditions: for Wells positive [%]: HLA-A*02 restricted peptides, percentage of positive wells
Excerpt: In order to obtain information regarding the immunogenicity of the TUMAPs of the present invention, the inventors performed investigations using an in vitro T-cell priming assay based on repeated stimulations of CD8+ T cells with artificial antigen presenting cells (aAPCs) loaded with peptide/MHC complexes and anti-CD28 antibody.
In order to perform in vitro stimulations by artificial antigen presenting cells loaded with peptide-MHC complex (pMHC) and anti-CD28 antibody, the inventors first isolated CD8+ T cells from fresh HLA-A*02 leukapheresis products via positive selection using CD8 microbeads (Miltenyi Biotec, Bergisch-Gladbach, Germany) of healthy donors obtained from the University clinics Mannheim, Germany, after informed consent.
PBMCs and isolated CD8+ lymphocytes were incubated in T-cell medium (TCM) until use consisting of RPMI-Glutamax (Invitrogen, Karlsruhe, Germany) supplemented with 10% heat inactivated human AB serum (PAN-Biotech, Aidenbach, Germany), 100 U/ml Penicillin/100 μg/ml Streptomycin (Cambrex, Cologne, Germany), 1 mM sodium pyruvate (CC Pro, Oberdorla, Germany), 20 μg/ml Gentamycin (Cambrex). 2.5 ng/ml IL-7 (PromoCell, Heidelberg, Germany) and 10 U/ml IL-2 (Novartis Pharma, Nürnberg, Germany) were also added to the TCM at this step.
Generation of pMHC/anti-CD28 coated beads, T-cell stimulations and readout was performed in a highly defined in vitro system using four different pMHC molecules per stimulation condition and 8 different pMHC molecules per readout condition.
The purified co-stimulatory mouse IgG2a anti human CD28 Ab 9.3 (Jung et al., 1987) was chemically biotinylated using Sulfo-N-hydroxysuccinimidobiotin as recommended by the manufacturer (Perbio, Bonn, Germany). Beads used were 5.6 μm diameter streptavidin coated polystyrene particles (Bangs Laboratories, Illinois, USA).
pMHC used for positive and negative control stimulations were A*0201/MLA-001 (peptide […] (SEQ ID NO. 664) from modified Melan-A/MART-1) and A*0201/DDX5-001 ([…] from DDX5, SEQ ID NO. 665), respectively.
800.000 beads/200 μl were coated in 96-well plates in the presence of 4×12.5 ng different biotin-pMHC, washed and 600 ng biotin anti-CD28 were added subsequently in a volume of 200 μl. Stimulations were initiated in 96-well plates by co-incubating […] CD8+ T cells with 2×10^5 washed coated beads in 200 μl TCM supplemented with 5 ng/ml IL-12 (PromoCell) for 3 days at 37° C. Half of the medium was then exchanged by fresh TCM supplemented with 80 U/ml IL-2 and incubating was continued for 4 days at 37° C. This stimulation cycle was performed for a total of three times. For the pMHC multimer readout using 8 different pMHC molecules per condition, a two-dimensional combinatorial coding approach was used as previously described (Andersen et al., 2012) with minor modifications encompassing coupling to 5 different fluorochromes. Finally, multimeric analyses were performed by staining the cells with Live/dead near IR dye (Invitrogen, Karlsruhe, Germany), CD8-FITC antibody clone SK1 (BD, Heidelberg, Germany) and fluorescent pMHC multimers. For analysis, a BD LSRII SORP cytometer equipped with appropriate lasers and filters was used. Peptide specific cells were calculated as percentage of total CD8+ cells. Evaluation of multimeric analysis was done using the FlowJo software (Tree Star, Oregon, USA). In vitro priming of specific multimer+ CD8+ lymphocytes was detected by comparing to negative control stimulations.

Row | Peptide exchange (HLA-A*02:01) | Substance | Wells positive [%] (CD8+ T cells) | donors (CD8+ T cells; HLA-A*02, percentage of positive donors) | wells (CD8+ T cells; HLA-A*02, percentage of positive wells)
1 | “++++” (≧75% = ++++) | 56 (KLYEGIPVLL; listed as Homo sapiens) [compound 56] | “+” (<20% = +) |  | 
2 | “+++” (≧50 = +++) | 489 (KMWEELPEVV; listed as Homo sapiens) [compound 489] | “+” (<20% = +) |  | 
3 | “+++” (≧50 = +++) | 5 (HLTEVYPEL; listed as Homo sapiens) [compound 5] | “+++” (50%-69% = +++) |  | 
4 | “++++” (≧75% = ++++) | 3 (SLASKLTTL; listed as Homo sapiens) [compound 3] | “+” (<20% = +) |  | 
5 | “++++” (≧75% = ++++) | 7 (SLVGLLLYL; listed as Homo sapiens) [compound 7] | “++” (20%-49% = ++) |  | 
6 | “+++” (≧50 = +++) | 166 (YLNHLEPPV; listed as Homo sapiens) [compound 166] | “++++” (> = 70% = ++++) |  | 
7 | “+++” (≧50 = +++) | 518 (KLNAEVACV; listed as Homo sapiens) [compound 518] | “++” (20%-49% = ++) |  | 
8 | “++++” (≧75% = ++++) | 460 (AMLEKNYKL; listed as Homo sapiens) [compound 460] | “+” (<20% = +) |  | 
9 | “++” (≧20% = ++) | 141 (YLDFSNNRL; listed as Homo sapiens) [compound 141] | “+” (<20% = +) |  | 
10 | “+++” (≧50 = +++) | 11 (KIFEMLEGV; listed as Homo sapiens) [compound 11] | “+” (<20% = +) |  | 
11 | “+++” (≧50 = +++) | 463 (SLVESHLSDQLTL; listed as Homo sapiens) [compound 463] | “++” (20%-49% = ++) |  | 
12 | “+++” (≧50 = +++) | 79 (SLFIGEKAVLL; listed as Homo sapiens) [compound 79] | “+” (<20% = +) |  | 
13 | “+++” (≧50 = +++) | 38 (FLLEDDIHVS; listed as Homo sapiens) [compound 38] | “+” (<20% = +) |  | 
14 | “+++” (≧50 = +++) | 446 (QLIPALAKV; listed as Homo sapiens) [compound 446] | “++” (20%-49% = ++) |  | 
15 | “+++” (≧50 = +++) | 17 (GLLPGDRLVSV; listed as Homo sapiens) [compound 17] | “++” (20%-49% = ++) |  | 
16 | “+++” (≧50 = +++) | 215 (QLINHLHAV; listed as Homo sapiens) [compound 215] | “++” (20%-49% = ++) |  | 
17 | “++” (≧20% = ++) | 36 (YVLEDLEVTV; listed as Homo sapiens) [compound 36] | “+” (<20% = +) |  | 

Row | Peptide exchange (HLA-A*02:01) | Substance | Wells positive [%] (CD8+ T cells) | donors (CD8+ T cells; HLA-A*02, percentage of positive donors) | wells (CD8+ T cells; HLA-A*02, percentage of positive wells)
18 | “++++” (≧75% = ++++) | 395 (ALALGGIAVV; listed as Homo sapiens) [compound 395] | “+++” (50%-69% = +++) |  | 
19 | “+++” (≧50 = +++) | 49 (YLPAVFEEV; listed as Homo sapiens) [compound 49] | “++” (20%-49% = ++) |  | 
20 | “+++” (≧50 = +++) | 443 (GLWEIENNPTV; listed as Homo sapiens) [compound 443] | “+” (<20% = +) |  | 
21 | “++++” (≧75% = ++++) | 61 (FLQGYQLHL; listed as Homo sapiens) [compound 61] | “++” (20%-49% = ++) |  | 
22 | “+++” (≧50 = +++) | 150 (RLWEEGEELEL; listed as Homo sapiens) [compound 150] | “+” (<20% = +) |  | 
23 | “++” (≧20% = ++) | 499 (KIFDIDEAEEGV; listed as Homo sapiens) [compound 499] | “+” (<20% = +) |  | 
24 | “+++” (≧50 = +++) | 283 (ALYIGDGYVIHLA; listed as Homo sapiens) [compound 283] |  | +++ (50%-69 = +++) | + (<20% = +)
25 | “+++” (≧50 = +++) | 48 (ALAELYEDEV; listed as Homo sapiens) [compound 48] | “+” (<20% = +) |  | 
26 | “++++” (≧75% = ++++) | 143 (LLLDITPEI; listed as Homo sapiens) [compound 143] | “+” (<20% = +) |  | 
27 | “++” (≧20% = ++) | 603 (FLIEPEHVNTV; listed as Homo sapiens) [compound 603] | “+” (<20% = +) |  | 
28 | “++” (≧20% = ++) | 242 (AIAYILQGV; listed as Homo sapiens) [compound 242] | “+++” (50%-69% = +++) |  | 
29 | “++++” (≧75% = ++++) | 108 (ALFPGVALLLA; listed as Homo sapiens) [compound 108] | “++” (20%-49% = ++) |  | 
30 | “+++” (≧50 = +++) | 118 (KLIDNNINV; listed as Homo sapiens) [compound 118] | “+” (<20% = +) |  | 
31 | “+++” (≧50 = +++) | 247 (VLLPNDLLEKV; listed as Homo sapiens) [compound 247] | “+” (<20% = +) |  | 
32 | “++” (≧20% = ++) | 319 (SLEPQIQPV; listed as Homo sapiens) [compound 319] | “+” (<20% = +) |  | 
33 | “+++” (≧50 = +++) | 454 (KLPPPPPQA; listed as Homo sapiens) [compound 454] | “++” (20%-49% = ++) |  | 
34 | “+++” (≧50 = +++) | 198 (KTINKVPTV; listed as Homo sapiens) [compound 198] | “++” (20%-49% = ++) |  | 
